“Also recorded” adds a separate entry of the source. Where two headings read alike, the source gives them in different places.

Assay type in all cases: biochemical
The target in assay [1] is T1, ABHD12 (Mus musculus, UniProt Q99LR1).
T1 construct: the sole serine hydrolase targeted by the triterpenoids in native brain membrane proteome; from tissue; host or cells: mouse whole-brain membranes
T1 sequence (Q99LR1 1-398): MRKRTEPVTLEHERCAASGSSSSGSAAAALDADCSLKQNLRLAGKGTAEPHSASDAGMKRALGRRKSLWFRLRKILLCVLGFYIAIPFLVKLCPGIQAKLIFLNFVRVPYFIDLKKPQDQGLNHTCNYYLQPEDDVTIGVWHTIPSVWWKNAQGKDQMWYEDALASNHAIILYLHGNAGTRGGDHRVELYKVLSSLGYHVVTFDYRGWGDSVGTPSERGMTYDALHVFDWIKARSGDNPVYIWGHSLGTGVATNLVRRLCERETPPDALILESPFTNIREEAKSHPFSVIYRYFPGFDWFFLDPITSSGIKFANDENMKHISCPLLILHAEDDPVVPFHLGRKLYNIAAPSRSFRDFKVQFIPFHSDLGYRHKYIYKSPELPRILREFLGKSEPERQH
Kind of assay: Competitive ABPP with TAMRA-FP in mouse brain membrane proteome. The settings on record: mouse brain membranes, 1 h inhibitor, 1 h probe. The method, then:
(§1) Competitive ABPP using HEK293 cell lysates and mouse brain membranes was conducted to visualize effects of selected triterpenoids on the binding of the active site serine-targeting fluorescent fluorophosphonate probe TAMRA-FP following outlines of previous protocols, [31]. Briefly, lysates (25 µg) of HEK293 cells with or without (Mock) hABHD12 overexpression or mouse wholebrain membranes (100 µg) were treated for 1 h with DMSO or the inhibitor, after which TAMRA-FP labelling was conducted for 5 min (lysates) or 1 hour (membranes) at RT (final probe concentration 2 µM). The reaction was quenched by addition of gel loading buffer (followed by boiling for 5 min in the case of lysates), after which 10 µg protein (10 µl) was loaded per lane and the proteins were resolved in 10% SDS-PAGE together with standards. TAMRA-FP labeling was visualized (λex 552; λem 575 nm) by a fluorescent reader (FLA-3000 laser fluorescence scanner, Fujifilm, Tokyo, Japan). The intensity of bands was quantified using ImageJ, a freely available image analysis software (http://rsbweb.nih.gov/ij/).
(§2) For ABPP experiments (Figure 6C) and cannabinoid receptor activity assays (Table S2), membranes prepared from brain tissue of 4-week-old male rodents were used. The animals were obtained from the National Laboratory Animal Centre, University of Eastern Finland. Approval for the harvesting of animal tissue was obtained from the local welfare officer of the University of Eastern Finland.

The target in assay [2] is T2, hABHD12 (Homo sapiens, UniProt Q8N2K0).
T2 construct: expressed in transfected cells; host or cells: HEK293 (transient)
T2 sequence (Q8N2K0 1-398): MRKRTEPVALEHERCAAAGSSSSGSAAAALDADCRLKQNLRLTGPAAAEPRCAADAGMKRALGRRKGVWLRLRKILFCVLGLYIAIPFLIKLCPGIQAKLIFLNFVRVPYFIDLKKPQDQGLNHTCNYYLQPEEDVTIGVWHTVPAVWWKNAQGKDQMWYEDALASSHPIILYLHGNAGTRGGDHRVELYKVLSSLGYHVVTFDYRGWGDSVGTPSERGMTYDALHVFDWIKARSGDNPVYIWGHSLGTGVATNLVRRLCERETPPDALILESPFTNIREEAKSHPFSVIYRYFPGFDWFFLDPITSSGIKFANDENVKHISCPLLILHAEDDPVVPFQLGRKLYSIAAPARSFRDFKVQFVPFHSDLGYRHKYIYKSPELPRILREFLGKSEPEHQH
Kind of assay: Competitive ABPP with TAMRA-FP in hABHD12-HEK293 lysates. The settings on record: 1 h inhibitor, 5 min probe. As for the experimental part:
as §1

The target of assay [3] is T2, hABHD12. Put plainly: Fluorescent glycerol assay of 1-AG hydrolysis in hABHD12-HEK293 lysates. To be noted: hABHD12-HEK293 lysates; for Emax: read-out: max inhibition (converted). The method, then:
(§3) Glycerol liberated from 1-AG hydrolysis was determined with a sensitive fluorescent assay using lysates of HEK293 cells with transient overexpression of hABHD12, hABHD6 or hMAGL, essentially as previously described. […] Fluorescence (λex 530; λem 590 nm) was monitored using a Tecan Infinite M200 plate reader (Tecan Group Ltd., Männedorf, Switzerland). Inhibitory activities of selected compounds towards FAAH were determined using membranes of hFAAH overexpressing COS-7 cells, essentially as previously described. The final incubation volume (100 µL) contained 1 µg of protein and the substrate concentration was 20 µM (10 nM of ^3H-anandamide having specific activity of 60 Ci/mmol and concentration of 1 mCi/mL).

The target in assay [4] is T2, hABHD12. Kind of assay: Reversibility testing, 40-fold dilution of enzyme-inhibitor complex. The settings on record: time points 10, 20, 30, 60 and 90 min. As for the experimental part: Reversibility testing was carried out as previously described. Briefly, DMSO/inhibitor (0.5 µl) was incubated together with hABHD12-HEK293 lysate (4.5 µl, 0.3 µg protein/well) in TEMN-BSA buffer for 30 min. After this, a 40-fold dilution of enzyme-inhibitor complex was brought about by addition of the substrate [1-AG, 12.5 µM final concentration, containing additionally 1% EtOH (v/v)] in 195 µl of glycerol assay mix and fluorescence was kinetically monitored at 10 min intervals for 90 min at RT.

Assay [5] deals with T3, hABHD6 (Homo sapiens, UniProt Q9BV23).
T3 construct: expressed in transfected cells; host or cells: HEK293 (transient)
T3 sequence (Q9BV23 1-337): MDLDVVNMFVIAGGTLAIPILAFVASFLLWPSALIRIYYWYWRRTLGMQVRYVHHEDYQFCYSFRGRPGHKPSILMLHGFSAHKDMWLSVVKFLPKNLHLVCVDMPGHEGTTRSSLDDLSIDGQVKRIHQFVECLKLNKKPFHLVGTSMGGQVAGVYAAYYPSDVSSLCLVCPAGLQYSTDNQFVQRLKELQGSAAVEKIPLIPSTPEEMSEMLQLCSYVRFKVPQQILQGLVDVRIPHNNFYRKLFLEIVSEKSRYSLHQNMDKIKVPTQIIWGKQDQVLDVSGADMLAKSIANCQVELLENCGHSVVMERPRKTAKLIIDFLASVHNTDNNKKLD
Put plainly: Fluorescent glycerol assay in hABHD6-HEK293 lysates. The settings on record: 10 µM; NI = no inhibition at 10 µM; read-out: hABHD6 Remaining activity % control ± s.e.m (n=3). The method, then:
as §3

Assay [6] has as its target T4, hCB2R (Homo sapiens, UniProt P34972).
T4 construct: expressed in transfected cells; host or cells: CHO
Kind of assay: [35S]GTPγS binding, CB2R agonist activity, hCB2R-CHO cell membranes. To be noted: 10 µM. (In general: Binding of GTPγS marks nucleotide exchange on a G protein.)

Assay [7] deals with T5, hFAAH (Homo sapiens, UniProt O00519).
T5 construct: expressed in transfected cells; host or cells: COS-7
T5 sequence (O00519 1-579): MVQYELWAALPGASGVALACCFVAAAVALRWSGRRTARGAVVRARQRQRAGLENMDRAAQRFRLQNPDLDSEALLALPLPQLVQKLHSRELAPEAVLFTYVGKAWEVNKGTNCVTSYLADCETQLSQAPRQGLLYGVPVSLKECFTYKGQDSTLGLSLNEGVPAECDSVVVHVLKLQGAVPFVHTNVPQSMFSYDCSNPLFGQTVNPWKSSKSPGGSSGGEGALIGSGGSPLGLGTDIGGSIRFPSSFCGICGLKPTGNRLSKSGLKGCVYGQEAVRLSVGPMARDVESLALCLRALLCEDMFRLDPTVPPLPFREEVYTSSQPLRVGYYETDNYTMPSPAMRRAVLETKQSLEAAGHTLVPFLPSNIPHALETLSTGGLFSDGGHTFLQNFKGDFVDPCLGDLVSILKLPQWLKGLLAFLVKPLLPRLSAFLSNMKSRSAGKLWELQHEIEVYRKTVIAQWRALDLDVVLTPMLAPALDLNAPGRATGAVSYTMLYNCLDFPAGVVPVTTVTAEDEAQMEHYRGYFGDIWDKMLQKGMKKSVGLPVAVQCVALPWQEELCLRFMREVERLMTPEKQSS
Put plainly: FAAH activity, membranes of hFAAH overexpressing COS-7 cells, 3H-anandamide. The settings on record: read-out: hFAAH Remaining activity % control (mean (range)), n=2. The method, then:
as §3

Assay [8] deals with T6, hMAGL (Homo sapiens, UniProt Q99685).
T6 construct: expressed in transfected cells; host or cells: HEK293 (transient)
T6 sequence (Q99685 1-303): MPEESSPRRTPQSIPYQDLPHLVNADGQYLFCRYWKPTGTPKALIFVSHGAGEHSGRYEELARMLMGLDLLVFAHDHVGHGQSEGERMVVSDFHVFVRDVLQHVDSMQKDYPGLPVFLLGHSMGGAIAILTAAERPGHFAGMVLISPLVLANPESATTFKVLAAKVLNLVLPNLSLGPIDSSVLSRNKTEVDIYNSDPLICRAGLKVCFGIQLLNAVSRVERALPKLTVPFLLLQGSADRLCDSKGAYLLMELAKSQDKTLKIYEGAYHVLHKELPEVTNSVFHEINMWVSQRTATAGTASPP
Kind of assay: Fluorescent glycerol assay in hMAGL-HEK293 lysates. The settings on record: 10 µM; read-out: hMAGL Remaining activity % control ± s.e.m (n=3). As for the experimental part: as §3

Assay [9] has as its target T7, CB1R (Rattus norvegicus, UniProt P20272).
T7 construct: membranes prepared from brain tissue of 4-week-old male rodents were used; from tissue; host or cells: rat cerebellar membranes
Kind of assay: [35S]GTPγS binding, CB1R agonist activity, rat cerebellar membranes. The settings on record: 10 µM. As for the experimental part:
(§4) The CB1 and CB2 receptor activity of the selected compounds (10 µM) were measured using the GTPγS binding assay according to the previously described methods, [33].
as §2

Assay [10] addresses T7, CB1R. Kind of assay: [35S]GTPγS binding, CB1R antagonist activity, rat cerebellar membranes. To be noted: 10 µM. As for the experimental part:
as §4, §2

Assay [11] has as its system metabolic serine hydrolases. Kind of assay: Competitive ABPP, other serine hydrolases of mouse brain membrane proteome. The method, then:
as §1
For ABPP experiments (Figure 6C) and cannabinoid receptor activity assays (Table S2), membranes prepared from brain tissue of 4-week-old male rodents were used. The animals were obtained from the National Laboratory Animal Centre, University of Eastern Finland. […]

[12] abbreviates: three independent experiments, read-out: -logIC50±s.e.m. (converted).

T7 sequence (P20272 whole entry): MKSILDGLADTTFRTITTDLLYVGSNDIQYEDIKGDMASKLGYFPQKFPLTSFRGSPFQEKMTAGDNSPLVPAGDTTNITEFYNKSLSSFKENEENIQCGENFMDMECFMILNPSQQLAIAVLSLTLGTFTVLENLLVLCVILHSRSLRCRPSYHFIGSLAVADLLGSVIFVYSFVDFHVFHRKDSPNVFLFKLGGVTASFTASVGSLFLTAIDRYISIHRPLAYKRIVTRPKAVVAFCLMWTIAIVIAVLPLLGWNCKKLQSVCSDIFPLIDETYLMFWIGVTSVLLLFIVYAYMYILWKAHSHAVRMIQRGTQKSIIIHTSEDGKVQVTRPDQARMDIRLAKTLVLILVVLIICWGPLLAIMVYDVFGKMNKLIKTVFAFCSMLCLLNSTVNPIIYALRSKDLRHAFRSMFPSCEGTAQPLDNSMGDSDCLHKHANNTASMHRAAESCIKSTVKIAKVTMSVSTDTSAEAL
T4 sequence (P34972 whole entry): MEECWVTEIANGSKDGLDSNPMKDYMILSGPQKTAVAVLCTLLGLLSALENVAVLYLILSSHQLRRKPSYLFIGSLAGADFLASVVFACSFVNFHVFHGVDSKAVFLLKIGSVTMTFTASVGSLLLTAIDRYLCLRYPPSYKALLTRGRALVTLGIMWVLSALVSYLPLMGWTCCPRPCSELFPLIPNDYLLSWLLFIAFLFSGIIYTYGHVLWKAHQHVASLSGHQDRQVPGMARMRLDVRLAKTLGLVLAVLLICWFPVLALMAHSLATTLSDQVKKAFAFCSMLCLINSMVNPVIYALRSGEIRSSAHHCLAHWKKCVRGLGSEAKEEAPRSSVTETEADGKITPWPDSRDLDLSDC

For the molecule `C=C(C)[C@@H]1CC[C@]2(C(=O)N3CCCCC3)CC[C@]3(C)[C@H](CC[C@@H]4[C@@]5(C)CC[C@H](O)C(C)(C)[C@@H]5CC[C@]43C)[C@@H]12` [Compound 22], the “TAMRA-FP probe labeling of ABHD12” value in [1] was “ineffective, even at 200 µM concentration”. In assay [2], the “TAMRA-FP probe labeling of hABHD12” value is on record as “lacked activity; also recorded: ineffective”. Also, the remaining activity (in general, the activity still measured, relative to the control) at 10 µM in [3] (10 µM, NI = no inhibition, read-out: Remaining activity at 10 µM % ± s.e.m.) was found to be 94 ± 0.5%.

Take `C=C(C)[C@@H]1CC[C@]2(C(=O)O)CC[C@]3(C)[C@H](CC[C@@H]4[C@@]5(C)Cc6c([nH]c7ccc(OC)cc67)C(C)(C)[C@@H]5CC[C@]43C)[C@@H]12` [Compound 34]: the IC50 in assay [3] (setting [12]) is 1620 nM. The Emax in assay [3] was 100%. Besides, the “time-dependency of inhibitor potency (IC50) after 40-fold dilution” value in [4] is “time-dependent drop of inhibitor potency”.

With `CCCCCCCCCCC[C@@H](C[C@@H]1OC(=O)[C@H]1CCCCCC)OC(=O)[C@H](CC(C)C)NC=O` [THL, tetrahydrolipstatin, reference compound], the “TAMRA-FP probe labeling of ABHD12” value in assay [1] is recorded as “prevented TAMRA-FP labeling”. For the same molecule, the “TAMRA-FP probe labeling of hABHD12” value in assay [2] is reported as “fully prevented”. Besides, in assay [4], the “time-dependency of inhibitor potency (IC50) after 40-fold dilution” value is given as “remained constant; also recorded: does not change in a statistically significant manner”.

In the case of `C=C(C)C1CCC2(C(=O)O)CCC3(C)C(CCC4C5(C)Cc6c([nH]c7ccccc67)C(C)(C)C5CCC43C)C12` (stereo not drawn) [Compound 33], the remaining activity at 10 µM amounted to 81 ± 4.3% in assay [5], 90% in assay [7] and 74.8 ± 4.6% in assay [8]. Further, the “CB2R agonist activity [35S]GTPγS binding % Basal (Mean (range), n=2)” value in assay [6] is listed as 102 (90-114) % Basal. The “CB1R agonist activity [35S]GTPγS binding % Basal (Mean (range), n=2)” value in assay [9] is on record as 95 (94-96) % Basal. Moreover, the “CB1R antagonist activity [35S]GTPγS binding % HU210-evoked response (Mean (range), n=2)” value in assay [10] was 97 (96-98) % HU210-evoked response. For the same molecule, the figures for the IC50 in assay [3] (setting [12]) and in [3] (read-out: IC50) were 933 nM and 900 nM, respectively. Further, the Emax in assay [3] was 65%. The “time-dependency of inhibitor potency (IC50) after 40-fold dilution” value in assay [4] is given as “time-dependent drop of inhibitor potency”.

With `CC(C)[C@@H]1CC[C@]2(C(=O)O)CC[C@]3(C)[C@H](CC[C@@H]4[C@@]5(C)CCC(=O)C(C)(C)[C@@H]5CC[C@]43C)[C@@H]12` [Compound 23], the “TAMRA-FP probe labeling of ABHD12” value in assay [1] is “selectively inhibited probe labeling of ABHD12; also recorded: dose-dependently inhibit TAMRA-FP labeling of ABHD12 already at 20 µM”. Also, in assay [11], the “additional targets among the metabolic serine hydrolases” value was “no additional targets are evident”. Moreover, the remaining activity at 10 µM in [5] was 83 ± 2.8%; in assay [7], 98%; in assay [8], 77.5 ± 3.1%. The “CB2R agonist activity [35S]GTPγS binding % Basal (Mean (range), n=2)” value in assay [6] is on record as 98 (95-100) % Basal. Further, the “TAMRA-FP probe labeling of hABHD12” value in [2] is “dose-dependently inhibited probe labeling of hABHD12”. Also, in [9], the “CB1R agonist activity [35S]GTPγS binding % Basal (Mean (range), n=2)” value was 89 (86-92) % Basal. Further, in assay [10], the “CB1R antagonist activity [35S]GTPγS binding % HU210-evoked response (Mean (range), n=2)” value is 92 (90-95) % HU210-evoked response. Besides, in assay [3] (setting [12]), the IC50 is 1620 nM. Besides, the Emax in [3] was 89%.
